Experimental data as given in US20200089110A1, “SULFONIC ACID DERIVATIVE COMPOUNDS AS PHOTOACID GENERATORS IN RESIST APPLICATIONS” (Heraeus Precious Metals North America Daychem LLC, priority 2015, published 2020).

Experiments:
[1] = Solubility in PGMEA; format: physicochemical; conditions: in propylene glycol monomethyl ether acetate (PGMEA)
[2] = Photolysis of PAGs in acetonitrile under 365 nm irradiation (photoreactivity); format: physicochemical; conditions: for Solubility × Photoreactivity: product of solubility in PGMEA and relative photoreactivity at 365 nm
Excerpt: A photoresist composition typically comprises PAG, polymers, additives and solvents. The performance of a photoresist composition is mainly dependent on the properties of the PAG and polymer components. To formulate a high-performance photoresist composition, more photosensitive PAGs are typically selected. The photosensitivity of a PAG is typically directly related to the strength of the generated acid and the photoreactivity of the PAG. For a series of PAGs producing the same latent acid, their photosensitivity is related only to their photoreactivity. Thus evaluating the photosensitivity of a PAG can be achieved by studying its photoreactivity. The higher photoreactivity, the higher photosensitivity. The photoreactivity can be investigated by photolysis of a PAG in its dilute solution under low exposure intensity (to avoid side reactions which don't generate the desired acid). The change in the concentration of a PAG upon irradiation can be determined by measuring the absorbance of the PAG at the maximum absorption wavelength.
(§1) Photolysis of PAGs was carried out in acetonitrile in air at room temperature. The sodium salt of tetrabromophenol blue (TBPBNa), an acid indicator dye, which has a maximum absorption at 618 nm, was purchased from Aldrich (indicator grade) and used as received. Irradiation of the solution of the PAGs (3×10^−5 M) was performed using a Cole-Parmer UV 15 W bench lamp (EW-97605-50) at 365 nm. Light intensity was measured using an UV Power Puck II radiometer from EIT Inc. UV-Vis spectra were run on a Thermo Scientific Evolution 201 UV-visible spectrophotometer.
Photolysis of NIT, comparative compound A, D-1, and D-2 was examined in acetonitrile. The absorption band at 397 nm gradually decreases upon irradiation, indicating the progress of photoreaction with the increase of exposure dose of energy. Assuming the photoreaction is first-order, plot of natural log of changes in absorbance with exposure dose of energy gives the photoreaction constant of D-2 (i.e. the slope of the linear trendline) (FIG. 2). The photoreaction constants of other compounds were similarly determined under the same irradiation condition.
Comparing the constants of A, D-1, and D-2 with that of NIT normalized to one gives the relative photoreactivity (Table 7). The photoreactivity for PAG (e.g. D-2) according to the present disclosure is ˜8 times greater than that of NIT and ˜3 times greater than that of Comparative Compound A. The formation of acid upon irradiation was confirmed by observing the spectral changes of the acid indicator, TBPBNa at 618 nm.

[3] = UV-Vis spectra of PAG compounds; format: physicochemical; conditions: for absorbance at i-line of a mercury lamp: compared with NIT (FIG. 4); for strong absorption band: 0.001% w/v (FIG. 4)
Description: FIG. 4 is a UV-Vis spectra of compounds NIT, D-1, and D-2 in PGMEA and D-4 in acetonitrile (0.001% w/v).
as §1

Row | SMILES | Solubility (w/w %) in PGMEA [1] [% w/w %] | Solubility × Photoreactivity [2] [%] | melting point [°C] | absorbance at i-line of a mercury lamp [3] | strong absorption band ([3]; in PGMEA) [nm] | absorption band ([2]; in acetonitrile, band decreases upon irradiation (FIG. 1)) [nm] | g-line absorbance ([3]; FIG. 4) | strong absorption band ([3]; in acetonitrile) [nm]
1 | CCC(C)Oc1ccc(/C=C/c2ccc3c4c(cccc24)C(=O)N(OS(=O)(=O)C(F)(F)F)C3=O)cc1 (stereo not drawn) | 4.3 | 37.4 |  |  |  |  |  | 
2 | O=C1c2cccc3c(C#Cc4ccccc4)ccc(c23)C(=O)N1OS(=O)(=O)C(F)(F)F [Comparative Compound A, reference compound] | 1.0 | 2.5 |  |  |  |  |  | 
3 | CCCCOC(=O)/C=C/c1ccc2c3c(cccc13)C(=O)N(OS(=O)(=O)C(F)(F)F)C2=O [Compound D-1] | 6.9 | 12.4 | 151 to 152 | much larger than that of NIT | 363 |  |  | 
4 | O=C1c2cccc3c(/C=C/c4ccccc4)ccc(c23)C(=O)N1OS(=O)(=O)C(F)(F)F [Compound D-2] | 1.6 | 13.1 | 182 to 184 | much larger than that of NIT | 397 | 397 |  | 
5 | CC(C)(C)c1ccc(/C=C/c2ccc3c4c(cccc24)C(=O)N(OS(=O)(=O)C(F)(F)F)C3=O)cc1 [Compound D-3] |  |  | 227 to 229 |  |  |  |  | 
6 | CC(C)(C)Oc1ccc(/C=C/c2ccc3c4c(cccc24)C(=O)N(OS(=O)(=O)C(F)(F)F)C3=O)cc1 [Compound D-4] |  |  |  | much larger than that of NIT |  |  | large | 415
7 | O=C1c2cccc3cccc(c23)C(=O)N1OS(=O)(=O)C(F)(F)F [NIT, N-Hydroxynaphthalimide triflate, reference compound] | 1.7 | 1.7 |  |  |  |  |  | 
